Measurements reported in publication PMC4763312, “Comparative study of curcumin and curcumin formulated in a solid dispersion: Evaluation of their antigenotoxic effects” (Genetics and Molecular Biology, 2015).

Key:
Type in all cases: in vivo, Wistar rats
Tp53 mRNA = assay: Quantification of Tp53 mRNA in kidney tissue (RT-qPCR); conditions: 50 mg/kg b.w. together with cDDP 6 mg/kg b.w.
Procedure: These were administered via gavage at 72 h, 48 h, 24h or 30 min before the intraperitoneal administration of saline solution or the antitumoral agent cDDP, which was used as a damage-inducing agent. Total RNA was extracted from kidney tissue using the SV Total Isolation System kit (Promega, Madison, WI, USA), according the manufacturer's instructions. […] The extracted RNA was converted to cDNA using the SuperScriptTM III kit (Invitrogen, Carlsbad, CA, USA), and RT-qPCR was performed in a CFX96 Real-Time PCR Detection System (Bio-Rad, CA, USA) using the Bio-Rad Real-Time PCR system with ABsoluteTM QPCR SYBR1 Green Mix (Invitrogen, Carlsbad, CA, USA), where fluorescence detection was performed following each annealing/extension cycle. The following reference genes were tested for suitability: b-actin (b-actin-forward: […] reverse: […] (GAPDH-forward: […]-reverse: [NT] and […]-forward: […]-reverse [NT] Based on stability, we selected b-actin as the endogenous control gene for RT-qPCR. Gene-specific primers for Tp53 (Tp53-forward: [NT]; Tp53-reverse: […] Louis, MO, USA). RT-qPCR efficiencies for Tp53 and b-actin were satisfactory, and the relative expression of Tp53 mRNA was normalized to the amount of b-actin using the method of relative 2^-ΔΔCt quantification described by [Livak and Schmittgen (2001)].

[1] = Cell viability by Trypan blue dye exclusion, peripheral blood cells; conditions: male, Wistar, rat, peripheral blood cells, oral, % in relation to saline solution group
Procedure: (§1) These were administered via gavage at 72 h, 48 h, 24h or 30 min before the intraperitoneal administration of saline solution or the antitumoral agent cDDP, which was used as a damage-inducing agent. The alkaline version of the comet assay was performed according to protocols proposed by [Singh et al. (1988)] and [Tice et al. (2000)], with minor modifications (the slides were stained with GelRed, 1:10,000, Biotium-USA). To check for possible cytotoxic effects of the treatments, cell viability was determined via the Trypan blue dye exclusion method. […] Following lysis, the slides were placed in a horizontal electrophoresis unit containing 300 mM NaOH and 1 mM EDTA (pH > 13) for 20 min at an electric field strength of 0.78 V/cm (25 V and 300 mA). The slides were neutralized and stained with Gel Red (1:10,000). A total of 100 nucleoids per animal (two slides of 50 nucleoids each) were analysed at a 400x magnification using a fluorescence microscope (Axiostar, Zeiss, Germany) equipped with a 515-560 nm excitation filter, a 590 nm barrier filter and an integrated digital camera. Tail intensity (% tail DNA) was evaluated using the Comet Assay IV software (Perceptive Instruments, Suffolk, UK).

[2] = Variation in body mass and relative mass of the kidney
Procedure: Male Wistar albino rats, at 5-6 weeks of age and weighing approximately 160 g were obtained from the Animal Facility of the Ribeirão Preto Campus of the University of São Paulo. The animals were divided into 12 groups of six for each treatment. The experimental protocols applied in this study were approved by the Local Ethics Committee for Animal Use (CEUA) of Ribeirão Preto, Brazil, Register No.08.1.1417.53.2. […] These were administered via gavage at 72 h, 48 h, 24h or 30 min before the intraperitoneal administration of saline solution or the antitumoral agent cDDP, which was used as a damage-inducing agent. The body weights of the rats were recorded daily. At 24 h after cDDP administration (5th day), the animals were euthanized for sample collection. […] The same animals were used in genotoxicity assays (micronucleus test and comet assay) and biochemical tests (GSH and TBARS), as well as for the expression analysis of the Tp53 gene.

[3] = system: thiobarbituric-acid-reactive substances (TBARS) in kidney tissue; assay: TBARS level in the kidney; conditions: for TBARS: kidney
Procedure: These were administered via gavage at 72 h, 48 h, 24h or 30 min before the intraperitoneal administration of saline solution or the antitumoral agent cDDP, which was used as a damage-inducing agent. The body weights of the rats were recorded daily. At 24 h after cDDP administration (5th day), the animals were euthanized for sample collection. […] The same animals were used in genotoxicity assays (micronucleus test and comet assay) and biochemical tests (GSH and TBARS), as well as for the expression analysis of the Tp53 gene. TBARS measurements in kidney tissue were performed according to [Buege and Aust (1978)]. A 0.5 mL aliquot of the homogenate was added to 1 mL of thiobarbituric acid solution (containing 15% trichloroacetic acid and 0.25 M HCl) to a final concentration of […]. This mixture was warmed in a water bath for 15 min and centrifuged for 20 min at 180 x g. The absorbance of the supernatant was determined at 535 nm (UV-VisB582 Micronal spectrophotometer), and the results were expressed as nmol TBARS/mg protein. […] The quantification of total proteins was done at 650 nm (RayLeigh UV-1601 spectrophotometer) using Lowry’s method ([Hartree, 1972]).

[4] = Cell viability by Trypan blue dye exclusion, kidney cells; conditions: male, Wistar, rat, kidney cells, oral, % in relation to saline solution group
Procedure: as §1

[5] = system: reduced glutathione (GSH) in kidney tissue; assay: GSH level in the kidney; conditions: for GSH: kidney
Procedure: These were administered via gavage at 72 h, 48 h, 24h or 30 min before the intraperitoneal administration of saline solution or the antitumoral agent cDDP, which was used as a damage-inducing agent. The body weights of the rats were recorded daily. At 24 h after cDDP administration (5th day), the animals were euthanized for sample collection. […] The same animals were used in genotoxicity assays (micronucleus test and comet assay) and biochemical tests (GSH and TBARS), as well as for the expression analysis of the Tp53 gene. GSH concentrations in kidney tissue were determined according to method described by [Sedlak and Lindsay (1968)]. […] A 2.0 mL volume of Tris-EDTA buffer (0.2 M, pH 8.9) and 0.1 mL of 5,5 ‘-dithio-bis-2-nitrobenzoic acid (DTNB) in 0.01 M methanol were added to a 0.5 mL aliquot of the supernatant. The samples were maintained at room temperature for 15 min and then read at 412 nm (RayLeigh UV-1601 spectrophotometer). Standard curves were prepared using α-cysteine, and results were expressed as nmol GSH/g protein. The quantification of total proteins was done at 650 nm (RayLeigh UV-1601 spectrophotometer) using Lowry’s method ([Hartree, 1972]).

kidney cells [6] = assay: Alkaline comet assay, kidney cells
Procedure: as §1, with “agent. The body weights of the rats were recorded daily. At 24 h after cDDP administration (5th day), the animals were euthanized for sample collection. […] The same animals were used in genotoxicity assays (micronucleus test and comet assay) and biochemical tests (GSH and TBARS), as well as for the expression analysis of the Tp53 gene.” for “agent.”

peripheral blood cells [7] = assay: Alkaline comet assay, peripheral blood cells
Procedure: as §1, with “agent. The body weights of the rats were recorded daily. At 24 h after cDDP administration (5th day), the animals were euthanized for sample collection. […] The same animals were used in genotoxicity assays (micronucleus test and comet assay) and biochemical tests (GSH and TBARS), as well as for the expression analysis of the Tp53 gene.” for “agent.”

bone marrow erythrocytes = assay: Micronucleus test in bone marrow
Procedure: These were administered via gavage at 72 h, 48 h, 24h or 30 min before the intraperitoneal administration of saline solution or the antitumoral agent cDDP, which was used as a damage-inducing agent. The body weights of the rats were recorded daily. At 24 h after cDDP administration (5th day), the animals were euthanized for sample collection. […] The same animals were used in genotoxicity assays (micronucleus test and comet assay) and biochemical tests (GSH and TBARS), as well as for the expression analysis of the Tp53 gene. The micronucleus test was performed according to the protocol described by [Schmid (1975)]. Bone marrow cells were harvested from rat femurs, mixed with fetal bovine serum, homogenized and centrifuged, and the pellet was resuspended for slide preparations. The slides were then fixed, stained with Giemsa solution and coded. Three slides were produced for each animal. Coded slides were scored under 1000X magnification using a light microscope (Zeiss).

peripheral blood cells [8] = assay: Cell viability by Trypan blue dye exclusion, peripheral blood cells; conditions: % in relation to saline solution group; GLA gavage + cDDP 6 mg/kg b.w. i.p.
Procedure: as §1

kidney cells [9] = assay: Cell viability by Trypan blue dye exclusion, kidney cells; conditions: % in relation to saline solution group; GLA gavage + cDDP 6 mg/kg b.w. i.p.
Procedure: as §1

[10] = 50 mg/kg b.w. gavage x4 + cDDP 6 mg/kg b.w. i.p.
[11] = 50 mg/kg b.w. gavage x4 + i.p. saline
[12] = 50 mg/kg b.w. gavage x4 + cDDP 6 mg/kg b.w. i.p., 24 h
[13] = GLA gavage + cDDP 6 mg/kg b.w. i.p.
[14] = GLA gavage + cDDP 6 mg/kg b.w. i.p., 24 h

In the case of `COc1cc(C=CC(=O)CC(=O)C=Cc2ccc(O)c(OC)c2)ccc1O` [CMN, 1,7-bis[4-hydroxy 3-methoxyphenyl]-1,6-heptadiene-3,5-dione], the “Tp53 expression compared to saline solution group” value (Tp53 mRNA) is reported as “up-regulated”, the viability at 24 h [1, 10] is reported as 99.2 ± 0.7% and the viability at 24 h [1, 11] is reported as 98.7 ± 0.5%. For the same molecule, the “Body weight variation, interval 2 (day 4 to 5)” value [2, 10] was 0.1 ± 2.5 g, the Kidney/body weight [2, 10] was 0.90 ± 0.06% and the “Body weight variation, interval 1 (days 1 to 4)” value ([2]; 50 mg/kg b.w. gavage x4 + cDDP 6 mg/kg b.w. i.p. group) was 31.8 ± 4.7 g. For the same molecule, the “Body weight variation, interval 1 (days 1 to 4)” value [2, 11] was 31.7 ± 6.6 g, the “Body weight variation, interval 2 (day 4 to 5)” value [2, 11] was 8.2 ± 2.4 g and the Kidney/body weight [2, 11] was 0.96 ± 0.05%. For the same molecule, the “Reduction of body weight gain triggered by cDDP (in words)” value ([2]; combined application with cDDP) was “did not alter the reduction of body weight gain”, the “TBARS concentration in renal tissue (in words)” value ([3]; administered alone) was “did not alter” and the TBARS [3, 12] was 0.222 ± 0.064 nmol/mg protein. For the same molecule, the TBARS [3, 11] was 0.236 ± 0.018 nmol/mg protein, the “TBARS levels, administered together with cDDP (in words)” value ([3]; with cDDP 6 mg/kg b.w., p > 0.05 vs saline solution group) was “able to maintain the TBARS levels observed in the saline solution group” and the viability at 24 h [4, 10] was 88.5 ± 2.2%. The viability at 24 h [4, 11] was 89 ± 2.3%, the “GSH concentration in renal tissue (in words)” value ([5]; administered alone) was “did not alter” and the GSH [5, 12] was 17.0 ± 1.4 nmol/mg protein. For the same molecule, the GSH [5, 11] was 14.4 ± 1.2 nmol/mg protein, the “% tail DNA, kidney” value (kidney cells [6]; [10]) was 4.0 ± 0.8% and the “% tail DNA, kidney” value (kidney cells [6]; [11]) was 5.5 ± 2.8%. For the same molecule, the “Comet assay, in association with cDDP compared to cDDP-only group (in words)” value (kidney cells [6]; with cDDP 6 mg/kg b.w.) was “did not induce significant alterations”, the “% tail DNA, peripheral blood” value (peripheral blood cells [7]; [10]) was 2.1 ± 0.6% and the “% tail DNA, peripheral blood” value (peripheral blood cells [7]; [11]) was 3.2 ± 0.9%. For the same molecule, the “Frequency of micronucleated polychromatic erythrocytes, MNPCEs/1000 PCEs” value (shortened to “Frequency”) (bone marrow erythrocytes; [10]) was 7.08 ± 3.04 ^# MNPCEs/1000 PCEs, the “Frequency” value (bone marrow erythrocytes; [11]) was 1.91 ± 1.27 MNPCEs/1000 PCEs and the “Formation of cDDP-induced micronuclei (in words)” value (bone marrow erythrocytes; CMN SD 5, 25 and 50 mg/kg b.w., unmodified CMN 50 mg/kg b.w., p < 0.05) was “significantly reduced”.
For `[NH2][Pt]([NH2])([Cl])[Cl]` [cDDP, Cisplatin], the “Cell viability, peripheral blood” value (peripheral blood cells [8]) was 98.8 ± 0.7%, the “Body weight variation, interval 2 (day 4 to 5)” value [2, 13] was 0.8 ± 2.2 g and the Kidney/body weight [2, 13] was 1.02 ± 0.11%. The “Body weight variation, interval 1 (days 1 to 4)” value ([2]; GLA gavage + cDDP 6 mg/kg b.w. i.p. group) was 27.5 ± 6.1 g, the TBARS [3, 14] was 0.286 ± 0.014 nmol/mg protein and the “Cell viability, kidney” value (kidney cells [9]) was 86.5 ± 3.1%. For the same molecule, the GSH [5, 14] was 18.5 ± 0.6 nmol/mg protein, the “% tail DNA, kidney” value (kidney cells [6]; [13]) was 3.8 ± 0.7 % and the “% tail DNA, peripheral blood” value (peripheral blood cells [7]; [13]) was 2.2 ± 0.8%. The “Frequency” value (bone marrow erythrocytes; [13]) was 12.75 ± 3.32 MNPCEs/1000 PCEs and the “PCE/(PCE + NCE) ratio” value (bone marrow erythrocytes; in 500 erythrocytes, GLA gavage + cDDP 6 mg/kg b.w. i.p.) was 44.8 ± 4.9%.
